How the values were obtained:
Format in all cases: cell-based, mice (B6D2-F1, strain C57BL×DBA)
[1] = tested on: cumulus enclosed oocytes (CEO); assay: Oocyte assay, antagonistic testing, CEO assay (inhibition of 22S-hydroxy-FF-Mas induced oocyte maturation); settings: 22S-hydroxy-FF-Mas 5 μM, hypoxanthine 4 mM medium, 22 hours culture, number in brackets = control (22S-hydroxy-FF-Mas alone)
Procedure: (§1) The meiosis inhibiting activity of the (androst-5-en-17β-yl)alkyl sulfoxides and sulfones of the invention is measured in an in vitro oocyte assay as the ability to inhibit the FF-Mas or 22S-hydroxy-FF-Mas induced maturation, in hypoxanthine media, in denuded oocytes (DO) or cumulus enclosed oocytes (CEO), respectively. The compounds can be used to inhibit meiosis in both male and female and thus can be used as contraceptive agents.
(§2) Natural resumption of meiosis can be mimicked in vitro by addition of FF-Mas or other agonists to the culture medium containing hypoxanthine. The antagonistic activity of the compounds is measured as the ability to inhibit the FF-Mas or 22S-hydroxy-FF-Mas induced oocyte maturation in denuded oocytes or cumulus enclosed oocytes, respectively, in vitro.
(§3) Ovaries are obtained from immature female mice (B6D2-F1, strain C57BL×DBA). At the age of 19, 20 or 21 days the mice are injected subcutaneously with a single dose of 20 IU follicle stimulating hormone (Humegon, Organon, The Netherlands) in saline.
Forty-eight hours after follicle stimulating hormone injection mice are killed by cervical dislocation. The ovaries are removed, freed of extraneous tissue and placed in a multidish containing 0.5 ml preparation medium at 37° C. […]
(§4) The oocyte assay is performed in 3 blocks, each block represents the ovaries of one mouse (randomized block design). […] At t=0 the number of oocytes with intact germinal vesicles (GV) or germinal vesicle break-down (GVBD) is counted under an inverted microscope with differential interference contrast equipment. […] At the end of the culture period the number of oocytes with GV or GVBD per group is counted. For statistical analysis the percentage germinal vesicle breakdown is calculated for each group in one block. These percentages are subjected to arcsin transformation, and differences between control and test compounds are analyzed by an ANOVA test for a randomized block design. […]

[2] = tested on: denuded oocytes (DO); assay: Oocyte assay, antagonistic testing, DO assay (inhibition of FF-Mas induced oocyte maturation); settings: FF-Mas 5 μM, compound 5 μM, hypoxanthine 4 mM medium, 22 hours culture, number in brackets = control (FF-Mas alone)
Procedure: as §1, §2, §3
Forty-eight hours after follicle stimulating hormone injection mice are killed by cervical dislocation. The ovaries are removed, freed of extraneous tissue and placed in a multidish containing 0.5 ml preparation medium at 37° C. L-15 Leibovitz medium (Gibco, pH 7.3±0.1) supplemented with bovine serum albumin (3 mg.ml^−1), L-glutamine (0.23 mM), sodium pyruvate (2 mM) and hypoxanthine (4 mM) is used as preparation medium. […]
as §4, with “block.” for “block. These percentages are subjected to arcsin transformation, and differences between control and test compounds are analyzed by an ANOVA test for a randomized block design.”

[3] = tested on: denuded oocytes (DO); assay: Oocyte assay, agonistic testing, DO assay (overcoming hypoxanthine maintained meiotic arrest); settings: hypoxanthine 4 mM medium, 22 hours culture, number in brackets = control
From the text: Oocytes arrested in meiosis contain diffused chromosomes which are surrounded by an intact nuclear envelope known as the germinal vesicle (GV). Upon reinitiation of meiosis by the midcycle gonadotropin surge, the chromosomes recondense and the GV breaks down (GVBD). In vivo, the oocyte is exposed to hypoxanthine (HX), which maintains the oocyte arrested in the meiotic prophase. This meiotic arrest can be mimicked in vitro by addition of hypoxanthine to the culture medium. The agonistic activity of meiosis activating substances is measured as the ability to overcome the hypoxanthine maintained meiotic arrest in denuded oocytes (DO) or cumulus enclosed oocytes (CEO), i.e. as the ability to induce meiotic resumption in vitro.
as §3
Forty-eight hours after follicle stimulating hormone injection mice are killed by cervical dislocation. The ovaries are removed, freed of extraneous tissue and placed in a multidish containing 0.5 ml preparation medium at 37° C. L-15 Leibovitz medium (Gibco, pH 7.3±0.1) supplemented with bovine serum albumin (3 mg.ml^−1), L-glutamine (0.23 mM), sodium pyruvate (2 mM) and hypoxanthine (4 mM) is used as preparation medium. The antral follicles of the ovaries are punctured under a dissecting microscope using two 27-gauge needles attached to two 1 ml syringes. Cumulus enclosed oocytes (CEO) of uniform size are selected with a mouth-controlled pipette and rinsed in 0,5 ml fresh preparation medium. About 20 CEO are obtained from one ovary.
Oocytes freed from cumulus cells, i.e. denuded oocytes (DO), are obtained by gently flushing CEO through a fine-bore mouth-controlled pipette. DO were collected in fresh MEM alpha medium, containing bovine serum albumin (3 mg.ml^−1), L-glutamine (0.23 mM), sodium pyruvate (2 mM) and hypoxanthine (4 mM), and washed twice before transfer to the test medium.
as §4

Compound	% GVBD CEO assay exp.(control) ([1]; compound 2.5 μM)	% GVBD DO assay exp.(control) [2]	% GVBD DO assay exp.(control) ([3]; compound 5 μM)	% GVBD CEO assay exp.(control) ([1]; compound 1.0 μM)	% GVBD DO assay exp.(control) ([3]; compound 10 μM)
CC(C)CC[C@@H](O)[C@@H](C)[C@H]1CC[C@H]2[C@@H]3CC=C4C[C@@H](O)CC[C@]4(C)[C@H]3CC[C@]12C [22R-hydroxycholesterol, (3β,20S,22R)-cholest-5-en-3-ol, reference compound]	52(89)^4%	38(89) %	–	–	–
CC(C)=CC[C@H](O)[C@@H](C)[C@H]1CC=C2C3=C(CC[C@@]21C)[C@@]1(C)CC[C@H](O)C(C)(C)[C@@H]1CC3 [22S-hydroxy-FF-Mas, (3β,5α,20S,22S)-4,4-dimethylcholesta-8,14,24-triene-3,22-diol, reference compound]	–	–	97(2) %	–	–
C=C(C)C[S@+]([O-])C[C@@H](C)[C@H]1CC[C@H]2[C@@H]3CC=C4C(C)(C)[C@@H](O)CC[C@]4(C)[C@H]3CC[C@]12C [Example 1a, [3β,20S,(21R)]-4,4,20-Trimethyl-21-[(2-methyl-2-propenyl)sulfinyl]pregn-5-en-3-ol]	–	14(84) %	3(12) %	9(96)^3%	–
C[C@H](C[S@@+]([O-])c1ccccc1)[C@H]1CC[C@H]2[C@@H]3CC=C4C(C)(C)[C@@H](O)CC[C@]4(C)[C@H]3CC[C@]12C [Example 3a, [3β,20S,(21R)]-4,4,20-Trimethyl-21-(phenylsulfinyl)pregn-5-en-3-ol]	–	4(84) %	4(12) %	34(96)^3%	–
CC(C)=CCC[C@@H](C)[C@H]1CC=C2C3=C(CC[C@@]21C)[C@@]1(C)CC[C@H](O)C(C)(C)[C@@H]1CC3 [FF-Mas, (3β,5α,20R)-4,4-dimethylcholesta-8,14,24-trien-3-ol, reference compound]	–	–	–	–	84(7) %

Source: US6552011B1, “(Androst-5-en-17beta -yl)alkyl sulfoxides and sulfones and their use for control of fertility” (Akzo Nobel NV, priority 1999, dated 2003)
